From patent publication US20250346592A1 (Celgene Corporation, priority 2022, published 2025)

Target: hPAD4 enzyme (Homo sapiens (Human), UniProt Q9UM07)
Assay: RFMS2 assay (RapidFire mass spectrometry, TSTGGRQGSHH peptide substrate)
Assay type: biochemical
Details: 35 nM recombinant human PAD4, 500 μM TSTGGRQGSHH peptide, 30 minutes at room temperature; read-out: RFMS 2 IC50
Method: Stock compounds were dissolved and stored in 100% DMSO. Compound solutions were prepared via serial dilution at 3-fold intervals in DMSO with top compound concentration at 20 μM in each assay. 0.25 μl of compound solution was transferred from the compound plate to the assay plate by using an acoustic dispenser.
• Total reaction volume: 25 μl • Assay buffer: […] pH 7.4, 200 mM NaCl, 2 mM CaCl2, 5 mM DTT • 35 nM recombinant human PAD4 • 500 μM TSTGGRQGSHH peptide • 1.2% DMSO • Stop solution: 10% formic acid
Reaction mixtures were incubated at room temperature for 30 minutes. 10 μl each of the reaction mixtures was then mixed with 40 μl of 10% formic acid in a microtiter plate. The plate was frozen at −80° C. before shipping out on dry ice for RapidFire mass spectroscopy analysis.
Thawed samples were loaded onto the Rapid Fire 300 system (Agilent) wherein they were first sipped for 250 ms and then loaded onto a Agilent “C” (C18) cartridge using a mobile phase of water containing 0.09% formic acid/0.01% trifluoroacetic acid for 3000 ms desalting flowing at a rate of 1.5 ml/min. Once the samples were loaded and washed, a mobile phase of acetonitrile containing 0.09% formic acid/0.01% trifluoroacetic acid was used to elute the samples directly onto a Sciex API4000 triple quadrupole mass spectrometer for 3000 ms at a flow rate of 1.25 ml/min.
MRM transitions for substrate and product were monitored in positive ESI mode at m/z=562.3/969.7 and m/z=562.8/541.3 respectively. The dwell time for each transition was set at 100 ms, and the ESI voltage was used at 5500 with a source temperature of 650° C. Extracted ion peaks for each transition were integrated using the Rapid Fire Integrator software.
Compounds having an activity designated as “A” provided an IC50≤10 nM; compounds having an activity designated as “B” provided an IC50 11-100 nM; compounds having an activity designated as “C” provided an IC50 101-500 nM; compounds having an activity designated as “D” provided an IC50 501-1000 nM; compounds having an activity designated as “E” provided an IC50>1000 nM.

Sequence of hPAD4 enzyme (Q9UM07 whole entry): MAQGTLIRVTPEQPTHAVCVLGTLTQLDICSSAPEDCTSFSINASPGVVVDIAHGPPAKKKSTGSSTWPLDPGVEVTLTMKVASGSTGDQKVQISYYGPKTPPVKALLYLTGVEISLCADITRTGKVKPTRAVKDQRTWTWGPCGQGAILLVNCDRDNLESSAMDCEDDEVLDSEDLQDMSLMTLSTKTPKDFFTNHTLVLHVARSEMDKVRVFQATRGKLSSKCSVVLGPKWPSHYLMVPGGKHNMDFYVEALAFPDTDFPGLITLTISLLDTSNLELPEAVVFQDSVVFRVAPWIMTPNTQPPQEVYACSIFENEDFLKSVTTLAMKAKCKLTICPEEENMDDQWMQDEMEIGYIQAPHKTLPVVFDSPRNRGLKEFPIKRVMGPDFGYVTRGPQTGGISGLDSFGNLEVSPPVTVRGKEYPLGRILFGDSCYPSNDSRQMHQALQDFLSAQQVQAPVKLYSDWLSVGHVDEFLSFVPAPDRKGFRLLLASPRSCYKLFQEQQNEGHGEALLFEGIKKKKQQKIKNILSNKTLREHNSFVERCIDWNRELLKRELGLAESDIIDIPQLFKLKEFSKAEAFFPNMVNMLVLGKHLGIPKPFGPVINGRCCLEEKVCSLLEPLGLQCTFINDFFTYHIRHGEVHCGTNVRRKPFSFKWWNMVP

| Compound | IC50 |
| --- | --- |
| CNC(=O)c1ccc2cc(-c3nc4cc5c(cc4n3C)CCN(C[C@H](N)CF)C5=O)n(CC3CC3)c2n1 [Example 63, (S)-2-(6-(2-amino-3-fluoropropyl)-1-methyl-5-oxo-5,6,7,8-tetrahydro-1H-imidazo[4,5-g]isoquinolin-2-yl)-1-(cyclopropylmethyl)-N-methyl-1H-pyrrolo[2,3-b]pyridine-6-carboxamide] | 501 to 1000 nM |
| COC1(Cn2c(-c3nc4cc5c(cc4n3C)CCN(C[C@H](N)CF)C5=O)cc3ccccc32)CC1 [Example 147, (S)-6-(2-amino-3-fluoropropyl)-2-(1-((1-methoxycyclopropyl)methyl)-1H-indol-2-yl)-1-methyl-1,6,7,8-tetrahydro-5H-imidazo[4,5-g]isoquinolin-5-one] | > 1000 nM |
| Cn1c(-c2cc3ccc(Cl)nc3n2CC2CC2)nc2cc3c(cc21)CCN(C[C@H](N)CF)C3=O [Example 56, (S)-6-(2-amino-3-fluoropropyl)-2-(6-chloro-1-(cyclopropylmethyl)-1H-pyrrolo[2,3-b]pyridin-2-yl)-1-methyl-1,6,7,8-tetrahydro-5H-imidazo[4,5-g]isoquinolin-5-one] | 101 to 500 nM |
| C=CCn1c(-c2nc3cc4c(cc3n2C)CCN(C[C@@H](C)N)C4=O)cc2ccccc21 [Example 82, (R)-2-(1-allyl-1H-indol-2-yl)-6-(2-aminopropyl)-1-methyl-1,6,7,8-tetrahydro-5H-imidazo[4,5-g]isoquinolin-5-one] | 501 to 1000 nM |
| Cc1ccc2c(c1)cc(-c1nc3cc4c(cc3n1C)CCN(C[C@@H](C)N)C4=O)n2CC1CC1 [Example 26, (R)-6-(2-aminopropyl)-2-(1-(cyclopropylmethyl)-5-methyl-1H-indol-2-yl)-1-methyl-1,6,7,8-tetrahydro-5H-imidazo[4,5-g]isoquinolin-5-one] | > 1000 nM |
| Cn1c(-c2cc3ccccc3n2CC2CC2)nc2cc3c(cc21)CCN(CC1CNCCN1)C3=O (stereo not shown) [Example 8, 2-(1-(cyclopropylmethyl)-1H-indol-2-yl)-1-methyl-6-(piperazin-2-ylmethyl)-1,6,7,8-tetrahydro-5H-imidazo[4,5-g]isoquinolin-5-one] | > 1000 nM |
| C[C@@H](N)CN1CCc2cc3c(cc2C1=O)nc(-c1cc2ccccc2n1Cc1cccnc1)n3C [Example 80, (R)-6-(2-aminopropyl)-1-methyl-2-(1-(pyridin-3-ylmethyl)-1H-indol-2-yl)-1,6,7,8-tetrahydro-5H-imidazo[4,5-g]isoquinolin-5-one] | 101 to 500 nM |
| C[C@@H](N)CN1CCc2cc3c(cc2C1=O)nc(-c1cc2ccccc2n1Cc1ccccc1)n3C [Example 78, (R)-6-(2-aminopropyl)-2-(1-benzyl-1H-indol-2-yl)-1-methyl-1,6,7,8-tetrahydro-5H-imidazo[4,5-g]isoquinolin-5-one] | 101 to 500 nM |
| CC(C)c1ccc2cc(-c3nc4cc5c(cc4n3C)CCN(C[C@H](N)CF)C5=O)n(CC3CC3)c2c1 [Example 51, (S)-6-(2-amino-3-fluoropropyl)-2-(1-(cyclopropylmethyl)-6-isopropyl-1H-indol-2-yl)-1-methyl-1,6,7,8-tetrahydro-5H-imidazo[4,5-g]isoquinolin-5-one] | 101 to 500 nM |
| Cn1c(-c2cc3cccc(OCCN4CCOCC4)c3n2CC2CC2)nc2cc3c(cc21)CCN(C[C@H](N)CF)C3=O [Example 158, (S)-6-(2-amino-3-fluoropropyl)-2-(1-(cyclopropyl-methyl)-7-(2-morpholinoethoxy)-1H-indol-2-yl)-1-methyl-1,6,7,8-tetrahydro-5H-imidazo[4,5-g] isoquinolin-5-one] | 501 to 1000 nM |
| Cn1c(-c2cc3cccc(N4CCOCC4)c3n2CC2CC2)nc2cc3c(cc21)CCN(C[C@H](N)CF)C3=O [Example 70] | > 1000 nM |
| CCc1cccc2cc(-c3nc4cc5c(cc4n3C)CCN(C[C@@H](C)N)C5=O)n(CC3CC3)c12 [Example 28, (R)-6-(2-aminopropyl)-2-(1-(cyclopropylmethyl)-7-ethyl-1H-indol-2-yl)-1-methyl-1,6,7,8-tetrahydro-5H-imidazo[4,5-g]isoquinolin-5-one] | 101 to 500 nM |
| Cn1c(-c2cc3ccncc3n2CC2CC2)nc2cc3c(cc21)CCN(C[C@H](N)CF)C3=O [Example 52, (S)-6-(2-amino-3-fluoropropyl)-2-(1-(cyclopropylmethyl)-1H-pyrrolo[2,3-c]pyridin-2-yl)-1-methyl-1,6,7,8-tetrahydro-5H-imidazo[4,5-g]isoquinolin-5-one] | > 1000 nM |

More lines, now with the values ahead:

| IC50 | Compound |
| --- | --- |
| 101 to 500 nM | Cn1c(-c2cc3cccc(OCCC4CNC(=O)C4)c3n2CC2CC2)nc2cc3c(cc21)CCN(C[C@H](N)CF)C3=O (single isomer, unassigned) [Example 179] |
| 101 to 500 nM | Cn1c(-c2cc3cccc(OCC4(C)CNC(=O)C4)c3n2CC2CC2)nc2cc3c(cc21)CCN(C[C@H](N)CF)C3=O (single isomer, unassigned) [Example 221] |
| 101 to 500 nM | COc1cccc2cc(-c3nc4cc5c(cc4n3C)CCN(C[C@H](N)CF)C5=O)n(Cc3oncc3C)c12 [Example 139, (S)-6-(2-amino-3-fluoropropyl)-2-(7-methoxy-1-((4-methylisoxazol-5-yl)methyl)-1H-indol-2-yl)-1-methyl-1,6,7,8-tetrahydro-5H-imidazo[4,5-g]isoquinolin-5-one] |
| 501 to 1000 nM | Cn1c(-c2cc3cccc(OCC4CCOCC4)c3n2CC2CC2)nc2cc3c(cc21)CCN(C[C@H](N)CF)C3=O [Example 161, (S)-6-(2-amino-3-fluoropropyl)-2-(1-(cyclopropylmethyl)-7-((tetrahydro-2H-pyran-4-yl)methoxy)-1H-indol-2-yl)-1-methyl-1,6,7,8-tetrahydro-5H-imidazo[4,5-g]isoquinolin-5-one] |
| 101 to 500 nM | COc1cccc2cc(-c3nc4cc5c(cc4n3C)CCN(C[C@H](N)CF)C5=O)n(Cc3cccnn3)c12 [Example 126, (S)-6-(2-amino-3-fluoropropyl)-2-(7-methoxy-1-(pyridazin-3-ylmethyl)-1H-indol-2-yl)-1-methyl-1,6,7,8-tetrahydro-5H-imidazo[4,5-g]isoquinolin-5-one] |
| 501 to 1000 nM | CCn1c(-c2nc3cc4c(cc3n2C)CCN(C[C@H](N)CF)C4=O)cc2ccc(OC)nc21 [Example 108, (S)-6-(2-amino-3-fluoropropyl)-2-(1-ethyl-6-methoxy-1H-pyrrolo[2,3-b]pyridin-2-yl)-1-methyl-1,6,7,8-tetrahydro-5H-imidazo[4,5-g]isoquinolin-5-one] |
| 101 to 500 nM | COCCn1c(-c2nc3cc4c(cc3n2C)CCN(C[C@@H](C)N)C4=O)cc2cccc(OC)c21 [Example 88, (R)-6-(2-aminopropyl)-2-(7-methoxy-1-(2-methoxyethyl)-1H-indol-2-yl)-1-methyl-1,6,7,8-tetrahydro-5H-imidazo[4,5-g]isoquinolin-5-one] |
| 501 to 1000 nM | COCCn1c(-c2nc3cc4c(cc3n2C)CCN(C[C@@H](C)N)C4=O)cc2cccc(C)c21 [Example 87, (R)-6-(2-aminopropyl)-2-(1-(2-methoxyethyl)-7-methyl-1H-indol-2-yl)-1-methyl-1,6,7,8-tetrahydro-5H-imidazo[4,5-g]isoquinolin-5-one] |
| 11 to 100 nM | Cn1c(-c2cc3cccc(OCC4COC(=O)N4)c3n2CC2CC2)nc2cc3c(cc21)CCN(C[C@H](N)CF)C3=O (stereo partly drawn) [Example 172, 4-(((2-(6-((S)-2-amino-3-fluoropropyl)-1-methyl-5-oxo-5,6,7,8-tetrahydro-1H-imidazo[4,5-g]isoquinolin-2-yl)-1-(cyclopropylmethyl)-1H-indol-7-yl)oxy)methyl)oxazolidin-2-one] |
